Values after ≈ are worked out from the molar mass of the structure shown. Active and inactive are the calls of the source. No cut-off for these calls is given here.

The subject of experiment [1] is Tetranychus urticae. The experiment can be described thus: Acaricidal activity against Tetranychus urticae (two-spotted spider mite) in compound treated snap bean leaves assessed as egg mortality measured after 2 days by leaf disk method. Format: functional. Particulars: foliar, 48 h.
In experiment [2] the test system is Tetranychus urticae. The experiment can be described thus: Acaricidal activity against Tetranychus urticae (two-spotted spider mite) in compound treated snap bean leaves assessed as adult mortality measured after 2 days by leaf disk method. Type of experiment: functional. The settings on record: foliar, 48 h.
Experiment [3] concerns Tetranychus urticae. Briefly: Acaricidal activity against kelthane-sensitive strain Tetranychus urticae (two-spotted spider mite) in compound treated snap bean leaves assessed as adult mortality measured after 2 days by leaf disk method. Format: functional. The settings on record: foliar, 48 h.
Experiment [4] relates to Tetranychus urticae. Briefly: Acaricidal activity against kelthane-resitant strain Tetranychus urticae (two-spotted spider mite) in compound treated snap bean leaves assessed as adult mortality measured after 2 days by leaf disk method. Format: functional. The settings on record: foliar, 48 h.
For a further experiment, the system named is Panonychus citri. The experiment can be described thus: Acaricidal activity against Panonychus citri in compound treated lemon leaf assessed as adult mortality. Format: functional, organism-based.
Experiment [5] concerns Tetranychus urticae. Briefly: Acaricidal activity against Tetranychus urticae (two-spotted spider mite) on strawberry plant assessed as average number of adult females mites at 800 fold dilutions measured after 30 days (reference value: 100%). Type of experiment: functional.
Experiment [6] deals with Tetranychus urticae. Briefly: Acaricidal activity against Tetranychus urticae (two-spotted spider mite) on strawberry plant assessed as average number of adult females mites at 800 fold dilutions measured after 23 days (reference value: 100%). Format: functional.
Experiment [7] relates to Tetranychus urticae. The experiment can be described thus: Acaricidal activity against Tetranychus urticae (two-spotted spider mite) on strawberry plant assessed as average number of adult females mites at 800 fold dilutions measured after 16 days (reference value: 100%). Type of experiment: functional.
For experiment [8], the system named is Tetranychus urticae. The experiment can be described thus: Acaricidal activity against Tetranychus urticae (two-spotted spider mite) on strawberry plant assessed as average number of adult females mites at 800 fold dilutions measured after 8 days (reference value: 100%). Type of experiment: functional.
In experiment [9] the test system is Tetranychus urticae. Briefly: Acaricidal activity against Tetranychus urticae (two-spotted spider mite) on strawberry plant assessed as average number of adult females mites at 800 fold dilutions measured after 3 days (reference value: 100%). Type of experiment: functional.
Experiment [10] relates to Tetranychus urticae. Briefly: Acaricidal activity against Tetranychus urticae (two-spotted spider mite) on strawberry plant assessed as average number of adult females mites at 400 fold dilutions measured after 30 days (reference value: 100%). Format: functional.
Experiment [11] concerns Tetranychus urticae. Briefly: Acaricidal activity against Tetranychus urticae (two-spotted spider mite) on strawberry plant assessed as average number of adult females mites at 400 fold dilutions measured after 23 days (reference value: 100%). Format: functional.
In experiment [12] the test system is Tetranychus urticae. The experiment can be described thus: Acaricidal activity against Tetranychus urticae (two-spotted spider mite) on strawberry plant assessed as average number of adult females mites at 400 fold dilutions measured after 16 days (reference value: 100%). Type of experiment: functional.
In experiment [13] the test system is Tetranychus urticae. The experiment can be described thus: Acaricidal activity against Tetranychus urticae (two-spotted spider mite) on strawberry plant assessed as average number of adult females mites at 400 fold dilutions measured after 8 days (reference value: 100%). Type of experiment: functional.
Experiment [14] has as its system Tetranychus urticae. Briefly: Acaricidal activity against Tetranychus urticae (two-spotted spider mite) on strawberry plant assessed as average number of adult females mites at 400 fold dilutions measured after 3 days (reference value: 100%). Type of experiment: functional.
Experiment [15] deals with Tetranychus urticae. Briefly: Ratio of LC50 for kelthane-resitant strain Tetranychus urticae (two-spotted spider mite) to LC50 for kelthane-sensitive strain Tetranychus urticae (two-spotted spider mite) assessed as egg mortality measured after 2 days by leaf disk method. Format: functional.
Experiment [16] deals with Tetranychus urticae. Briefly: Acaricidal activity against kelthane-sensitive strain Tetranychus urticae (two-spotted spider mite) in compound treated snap bean leaves assessed as egg mortality measured after 2 days by leaf disk method. Format: functional. The settings on record: foliar, 48 h.
For experiment [17], the system named is Tetranychus urticae. Briefly: Acaricidal activity against kelthane-resitant strain Tetranychus urticae (two-spotted spider mite) in compound treated snap bean leaves assessed as egg mortality measured after 2 days by leaf disk method. Particulars: foliar, 48 h. Type of experiment: functional.
Experiment [18] has as its system Tetranychus urticae. Briefly: Ratio of LC50 for kelthane-resitant strain Tetranychus urticae (two-spotted spider mite) to LC50 for kelthane-sensitive strain Tetranychus urticae assessed as adult mortality measured after 2 days by leaf disk method. Type of experiment: functional.
The subject of experiment [19] is Tetranychus urticae. Briefly: Acaricidal activity against Tetranychus urticae (two-spotted spider mite) on strawberry plant assessed as average number of adult females mites at 1000 fold dilutions measured after 30 days (reference value: 100%). Format: functional.
The test system of experiment [20] is Tetranychus urticae. The experiment can be described thus: Acaricidal activity against Tetranychus urticae (two-spotted spider mite) on strawberry plant assessed as average number of adult females mites at 1000 fold dilutions measured after 23 days (reference value: 100%). Format: functional.
The subject of experiment [21] is Tetranychus urticae. The experiment can be described thus: Acaricidal activity against Tetranychus urticae (two-spotted spider mite) on strawberry plant assessed as average number of adult females mites at 1000 fold dilutions measured after 16 days (reference value: 100%). Format: functional.
For experiment [22], the system named is Tetranychus urticae. The experiment can be described thus: Acaricidal activity against Tetranychus urticae (two-spotted spider mite) on strawberry plant assessed as average number of adult females mites at 1000 fold dilutions measured after 8 days (reference value: 100%). Type of experiment: functional.
The subject of experiment [23] is Tetranychus urticae. The experiment can be described thus: Acaricidal activity against Tetranychus urticae (two-spotted spider mite) on strawberry plant assessed as average number of adult females mites at 1000 fold dilutions measured after 3 days (reference value: 100%). Format: functional.

What is called LC50 is the concentration lethal to half of the exposed cells or organisms. On to `Cc1ccc2oc(-c3ccccc3)nc2c1`, for which the LC50 in the experiment on Tetranychus urticae [1] and in the experiment on Tetranychus urticae [2] was above 500 µg/mL in each case.

Regarding `Fc1cc(-c2nc3ccccc3s2)c(F)c(F)c1F`, the LC50 came out at 205 µg/mL (≈ 724 µM) in the experiment with Tetranychus urticae [1] and 102 µg/mL (≈ 360 µM) in the experiment on Tetranychus urticae [2].

For the compound `Cc1ccc2oc(-c3ccccc3F)nc2c1`, the LC50 with Tetranychus urticae [1] was above 500 µg/mL; in the experiment with Tetranychus urticae [2], 88 µg/mL (≈ 387 µM).

Turning to `Fc1cc(-c2nc3ccccc3s2)c(F)c(Cl)c1F`, the values for the LC50 with Tetranychus urticae [1] and with Tetranychus urticae [2] were 225 µg/mL (≈ 751 µM) and 35 µg/mL (≈ 117 µM), respectively.

As to `Fc1cc(-c2nc3cc(Cl)ccc3o2)c(F)c(F)c1F`, the 50% lethal concentration (LC50) in the experiment with Tetranychus urticae [1] is 202 µg/mL (≈ 670 µM); with Tetranychus urticae [2], 100 µg/mL (≈ 332 µM).

As for `Cc1ccc2oc(-c3cc(F)c(F)cc3F)nc2c1`, the results for the LC50 in the experiment on Tetranychus urticae [1] and in the experiment on Tetranychus urticae [2] were 173 µg/mL (≈ 657 µM) and 174 µg/mL (≈ 661 µM), respectively.

As for `Cc1ccc2nc(-c3cc(F)c(F)c(F)c3F)sc2c1`, the LC50 in the experiment with Tetranychus urticae [1] was 205 µg/mL (≈ 690 µM); in the experiment with Tetranychus urticae [2], 75 µg/mL (≈ 252 µM).

`Cc1ccc2oc(-c3cc(F)c(F)c(Cl)c3F)nc2c1`: the 50% lethal concentration (LC50) in the experiment on Tetranychus urticae [3] was 71.6 µg/mL (≈ 241 µM); in the experiment on Tetranychus urticae [4], 121 µg/mL (≈ 406 µM); in the experiment with Tetranychus urticae [1], 154 µg/mL (≈ 517 µM); in the experiment on Tetranychus urticae [2] it was 35 µg/mL (≈ 118 µM); in the experiment with Tetranychus urticae [16], 20.4 µg/mL (≈ 68.5 µM); with Tetranychus urticae [17], 17.1 µg/mL (≈ 57.4 µM). In addition, in the experiment on Panonychus citri, the outcome was Active. In addition, the Activity in the experiment with Tetranychus urticae [5] was found to be 65%; in the experiment with Tetranychus urticae [6], 51.4%; in the experiment with Tetranychus urticae [7] it was 75.3%; with Tetranychus urticae [8], 86.5%; with Tetranychus urticae [9] it was 93.7%; in the experiment on Tetranychus urticae [10], 43.9%. Besides, the Activity is 38.9% in the experiment with Tetranychus urticae [11], 71.1% in the experiment on Tetranychus urticae [12], 108.8% in the experiment with Tetranychus urticae [13] and 93.3% in the experiment on Tetranychus urticae [14]. Further, the RatioLC50 in the experiment on Tetranychus urticae [15] amounted to 0.84; in the experiment on Tetranychus urticae [18], 1.69.

On to `Cc1ccc2nc(-c3cc(F)c(F)c(Cl)c3F)sc2c1`, for which the LC50 in the experiment on Tetranychus urticae [1] turned out to be 287 µg/mL (≈ 915 µM); in the experiment with Tetranychus urticae [2], 155 µg/mL (≈ 494 µM).

In the case of `Fc1c(F)c(F)c(-c2nc3ccccc3s2)c(F)c1F` [2-(PERFLUOROPHENYL)BENZO[D]THIAZOLE], the LC50 with Tetranychus urticae [1] was 124 µg/mL (≈ 412 µM); in the experiment on Tetranychus urticae [2] it was 26 µg/mL (≈ 86.3 µM).

For the compound `Fc1ccc(-c2nc3ccccc3s2)cc1F`, the LC50 was above 500 µg/mL in the experiment with Tetranychus urticae [1] and below 125 µg/mL in the experiment with Tetranychus urticae [2].

As to `c1ccc(-c2nc3ccccc3s2)cc1` [2-PHENYLBENZO[D]THIAZOLE], the 50% lethal concentration (LC50) is above 500 µg/mL in the experiment with Tetranychus urticae [1] and 211 µg/mL (≈ 999 µM) with Tetranychus urticae [2].

As for `CCc1nn(C)c(C(=O)NCc2ccc(C(C)(C)C)cc2)c1Cl` [TEBUFENPYRAD], the Activity came out at 4.5% in the experiment with Tetranychus urticae [19]; 13.5% in the experiment with Tetranychus urticae [20]; 5.6% with Tetranychus urticae [21]; 7.8% in the experiment on Tetranychus urticae [22]; 4.3% in the experiment with Tetranychus urticae [23].

Regarding `Fc1cc(-c2nc3ccccc3o2)c(F)c(F)c1F`, the LC50 in the experiment with Tetranychus urticae [1] was found to be 351 µg/mL (≈ 1310 µM); with Tetranychus urticae [2], 151 µg/mL (≈ 565 µM).

For `c1ccc(-c2nc3ccccc3o2)cc1` [2-PHENYLBENZO[D]OXAZOLE], the LC50 in the experiment on Tetranychus urticae [1] and in the experiment on Tetranychus urticae [2] was above 500 µg/mL in each case.

In the case of `OC(c1ccc(Cl)cc1)(c1ccc(Cl)cc1)C(Cl)(Cl)Cl` [DICOFOL], the LC50 in the experiment on Tetranychus urticae [3] worked out at 15.9 µg/mL (≈ 42.9 µM); in the experiment on Tetranychus urticae [4], 296 µg/mL (≈ 800 µM); in the experiment on Tetranychus urticae [16] it was 80.7 µg/mL (≈ 218 µM); in the experiment with Tetranychus urticae [17] it was 90.9 µg/mL (≈ 245 µM). The RatioLC50 in the experiment with Tetranychus urticae [15] came out at 1.13; with Tetranychus urticae [18] it was 18.65.

Regarding `Fc1cc(-c2nc3cc(Cl)ccc3o2)c(F)c(Cl)c1F`, the LC50 in the experiment with Tetranychus urticae [1] came out at 173 µg/mL (≈ 544 µM); in the experiment with Tetranychus urticae [2], 37 µg/mL (≈ 116 µM).

`Fc1cc(-c2nc3ccccc3o2)c(F)c(Cl)c1F`: the LC50 in the experiment on Tetranychus urticae [1] turned out to be 257 µg/mL (≈ 906 µM); with Tetranychus urticae [2] it was 66 µg/mL (≈ 233 µM).

In the case of `Cc1ccc2oc(-c3ccc(F)cc3)nc2c1`, the LC50 with Tetranychus urticae [1] and with Tetranychus urticae [2] was above 500 µg/mL each time.

Take `Cc1ccc2oc(-c3cc(F)c(F)c(F)c3F)nc2c1`: the LC50 in the experiment on Tetranychus urticae [1] is above 500 µg/mL; in the experiment on Tetranychus urticae [2] it was 19 µg/mL (≈ 67.6 µM).

As for `Cc1ccc2nc(-c3cc(F)c(F)c(Cl)c3F)oc2c1`, the LC50 in the experiment with Tetranychus urticae [1] is above 500 µg/mL; in the experiment on Tetranychus urticae [2], 48 µg/mL (≈ 161 µM).

Regarding `Cc1ccc2oc(-c3cccc(F)c3)nc2c1`, the LC50 in the experiment with Tetranychus urticae [1] is above 500 µg/mL; in the experiment on Tetranychus urticae [2], 383 µg/mL (≈ 1690 µM).

Take `Cc1cc(C)c2oc(-c3cc(F)c(F)c(Cl)c3F)nc2c1`: the values for the LC50 in the experiment on Tetranychus urticae [1] and in the experiment with Tetranychus urticae [2] were above 500 µg/mL and below 31 µg/mL, respectively.

On to `Fc1cc(-c2nc3ccc(Br)cc3s2)c(F)c(F)c1F`, for which the LC50 worked out at 555 µg/mL (≈ 1530 µM) with Tetranychus urticae [1] and 93 µg/mL (≈ 257 µM) in the experiment with Tetranychus urticae [2].

The record behind these values is ChEMBL document CHEMBL3044609, “Synthesis and Acaricidal Activities of New 2-Polyfluorophenylbenzazole Derivatives” (2002).
